In the assay the target is Recombinant human HSD17B13 (Homo sapiens (Human), UniProt Q7Z5P4). The experiment in a line: HSD17B13 rapid-fire mass spectrometry assay (RF/MS assay). It counts as biochemical. As to conditions: inhibition of HSD17B13; LTB4 10 μM, NAD+ 0.5 mM, RT 3 h; IC50 ranges A-E. Put shortly: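 Sf9-expressed human HSD17B13 (80 nM) with 10 μM LTB4 and 0.5 mM NAD+, incubated with compound (0–100 μM) for 3 h at RT in Tris pH 7.5/BSA/Tween-20. After formic acid quench, LTB4 conversion to 12-oxo-LTB4 measured by RapidFire MS/MS. IC50 from normalised residual activity, duplicates.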
Recombinant human HSD17B13, sequence (Q7Z5P4 20-300): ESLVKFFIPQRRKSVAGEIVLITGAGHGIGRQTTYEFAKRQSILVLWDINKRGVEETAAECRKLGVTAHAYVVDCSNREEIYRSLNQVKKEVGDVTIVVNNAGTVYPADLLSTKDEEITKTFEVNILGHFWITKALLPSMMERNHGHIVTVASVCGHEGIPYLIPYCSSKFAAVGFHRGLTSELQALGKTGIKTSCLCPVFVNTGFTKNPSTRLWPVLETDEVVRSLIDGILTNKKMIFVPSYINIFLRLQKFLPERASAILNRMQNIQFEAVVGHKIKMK

Each structure is given as a SMILES string. pIC50: −log10 of the molar value.

Regarding `COc1cc(C(=O)O)ccc1NS(=O)(=O)c1cccc(-c2ccc([C@H]3CC[C@@H](C(C)(C)C)CC3)cc2)c1F` [Example 479, 4-((4′-((1s,4s)-4-(tert-butyl)cyclohexyl)-2-fluoro-[1,1′-biphenyl])-3-sulfonamido)-3-methoxybenzoic acid], the pIC50 is 6.30 to 7.00. As for `CC[C@H]1CC[C@@H](c2ccc(-c3nc(S(=O)(=O)Nc4ccc(C(=O)O)cc4OC)co3)cc2)CC1` [Example 481], the pIC50 was 6.30 to 7.00. `COc1cc(C(=O)O)c(F)cc1NS(=O)(=O)c1coc(-c2ccc(C3=CCC(C)(C)CC3)cc2)n1` [Example 482]: the pIC50 was > 7.00.

Turning to `COc1cc(C(=O)O)c(F)cc1NS(=O)(=O)c1coc(-c2ccc(C3=CCC(C(F)(F)F)CC3)cc2)n1` (stereo not shown) [Example 483], the pIC50 is > 7.00.

Regarding `COc1cc(P(=O)(O)O)ccc1NS(=O)(=O)c1csc(-c2ccc(C3CCCCC3)cc2)n1` [Example 484, (4-((2-(4-cyclohexylphenyl)thiazole)-4-sulfonamido)-3-methoxyphenyl)phosphonic acid], the negative logarithm of the IC50 (pIC50) was 4.00 to 6.00. Regarding `COc1cc(C(=O)O)ccc1NS(=O)(=O)c1csc(-c2ccc(C#CC3CCCCC3)cc2)n1` [Example 485], the pIC50 was 6.30 to 7.00.

As for `COc1cc(C(=O)O)ccc1NS(=O)(=O)c1csc(-c2ccc(C#Cc3ccc(F)cc3)cc2)n1` [Example 486], the pIC50 was 6.00 to 6.30. For `CCC1CC=C(c2ccc(-c3nc(S(=O)(=O)Nc4ccc(C(=O)O)cc4OC)co3)cc2)CC1` (stereo not shown) [Example 487] the value was 6.30 to 7.00; for `CC[C@H]1CC[C@H](c2ccc(-c3nc(S(=O)(=O)Nc4ccc(C(=O)O)cc4OC)co3)cc2)CC1` [Example 488], 6.30 to 7.00; for `CC[C@H]1CC[C@@H](c2ccc(-c3nc(S(=O)(=O)Nc4ccc(C(=O)O)cc4OC)co3)cc2)CC1` [Example 489], 6.30 to 7.00. Take `COc1cc(C(=O)O)c(F)cc1NS(=O)(=O)c1coc(-c2ccc([C@H]3CC[C@H](C(F)(F)F)CC3)cc2)n1` [Example 492]: the pIC50 was > 7.00. Regarding `COc1cc(C(=O)O)c(F)cc1NS(=O)(=O)c1coc(-c2ccc([C@H]3CC[C@@H](C(F)(F)F)CC3)cc2)n1` [Example 493], the pIC50 was > 7.00. With `CCC1CC=C(c2ccc(-c3nc(S(=O)(=O)Nc4cc(F)c(C(=O)O)cc4OC)co3)cc2)CC1` (stereo not shown) [Example 494], the pIC50 was > 7.00. As for `CC[C@H]1CC[C@H](c2ccc(-c3nc(S(=O)(=O)Nc4cc(F)c(C(=O)O)cc4OC)co3)cc2)CC1` [Example 495], the pIC50 is > 7.00.

Consider `COc1cc(C(=O)O)c(F)cc1NS(=O)(=O)c1coc(-c2ccc(C3CCC(C)(C)CC3)cc2)n1` [Example 496], for which the pIC50 was > 7.00. Consider `COc1cc(C(=O)O)c(F)cc1NS(=O)(=O)c1coc(-c2ccc(C3CCCCC3)cc2)n1` [Example 497], for which the negative logarithm of the IC50 (pIC50) is 6.30 to 7.00. Consider `COc1cc(C(=O)O)c(F)cc1NS(=O)(=O)c1cccc(-c2ccc(C3=CCC(C(C)(C)C)CC3)cc2)c1F` (stereo not shown) [Example 498], for which the pIC50 was > 7.00. With `COc1cc(C(=O)O)c(F)cc1NS(=O)(=O)c1cccc(-c2ccc(C3=CC[C@H](C(C)(C)C)CC3)cc2)c1F` [Example 499] the figure was > 7.00.

On to `COc1cc(C(=O)O)c(F)cc1NS(=O)(=O)c1cccc(-c2ccc([C@H]3CC[C@@H](C(C)(C)C)CC3)cc2)c1F` [Example 500], for which the pIC50 is > 7.00. Take `CC[C@H]1CC[C@H](c2ccc(-c3cccc(S(=O)(=O)Nc4cc(F)c(C(=O)O)cc4OC)c3F)cc2)CC1` [Example 501]: the pIC50 was > 7.00. For `COc1cc(C(=O)O)ccc1NS(=O)(=O)c1csc(-c2ccc(C3CCC(OC)CC3)cc2)n1` (stereo not shown) [Example 503] the value was 6.30 to 7.00. For `CCC[C@H]1CC[C@H](C2CCC(c3nc(S(=O)(=O)Nc4ccc(C(=O)O)cc4OC)cs3)CC2)CC1` (stereo partly shown) [Example 504] the value was 6.30 to 7.00; for `COc1c(NS(=O)(=O)c2csc(-c3ccc(C4CCC(C)(C)CC4)cc3)n2)ccc(C(=O)O)c1F` [Example 505], 6.30 to 7.00.

With `COc1cc(C(=O)O)ccc1NS(=O)(=O)c1csc(-c2ccc([C@H]3CC[C@H](C(F)(F)F)CC3)cc2)n1` [Example 506], the negative logarithm of the IC50 (pIC50) is > 7.00. With `COc1cc(C(=O)O)ccc1NS(=O)(=O)c1csc(-c2ccc(C34CC5CC(CC(C5)C3)C4)cc2)n1` [Example 507] the figure was 6.30 to 7.00.

For `CCCCC[C@H]1CC[C@H](c2ccc(-c3nc(S(=O)(=O)Nc4ccc(C(=O)O)cc4OC)cs3)cc2)CC1` [Example 508], the negative-log IC50 (pIC50) was > 7.00. As to `COc1cc(C(=O)O)c(F)cc1NS(=O)(=O)c1csc(-c2ccc([C@H]3CC[C@H](C(F)(F)F)CC3)cc2)n1` [Example 509], the pIC50 was > 7.00. As for `COc1cc(C(=O)O)c(F)cc1NS(=O)(=O)c1csc(-c2ccc(C3=CCC(C)(C)CC3)cc2F)n1` [Example 510], the pIC50 is > 7.00. In the case of `COc1cc(C(=O)O)c(F)cc1NS(=O)(=O)c1csc(-c2ccc(C3CCC(C)(C)CC3)cc2F)n1` [Example 511], the pIC50 is > 7.00. For `COc1cc(C(=O)O)c(F)cc1NS(=O)(=O)c1csc(-c2ccc(C3=CCC(C)(C)CC3)c(F)c2)n1` [Example 512], the pIC50 is > 7.00. Regarding `COc1cc(C(=O)O)c(F)cc1NS(=O)(=O)c1csc(-c2ccc(C3CCC(C)(C)CC3)c(F)c2)n1` [Example 513], the pIC50 is > 7.00. In the case of `COc1cc(C(=O)O)c(F)cc1NS(=O)(=O)c1csc(C#CC2CCC(C)(C)CC2)n1` [Example 514], the pIC50 was > 7.00. With `COc1cc(C(=O)O)c(F)cc1NS(=O)(=O)c1csc(-c2ccc(C3=CCC(C)(C)CC3)c(C(F)(F)F)c2)n1` [Example 515], the pIC50 was > 7.00. As to `COc1cc(C(=O)O)c(F)cc1NS(=O)(=O)c1csc(-c2cc(F)c(C3=CCC(C)(C)CC3)c(F)c2)n1` [Example 516], the pIC50 was 6.30 to 7.00. As for `COc1cc(C(=O)O)c(F)cc1NS(=O)(=O)c1csc(-c2cc(F)c(C3CCC(C)(C)CC3)c(F)c2)n1` [Example 517], the negative logarithm of the IC50 (pIC50) is 6.30 to 7.00. On to `COc1cc(C(=O)O)c(F)cc1NS(=O)(=O)c1csc(-c2cc(F)c(C3=CCC(C)(C)CC3)cc2F)n1` [Example 518], for which the pIC50 is 6.30 to 7.00. As to `COc1cc(C(=O)O)c(F)cc1NS(=O)(=O)c1csc(-c2cc(F)c(C3CCC(C)(C)CC3)cc2F)n1` [Example 519], the pIC50 was 6.30 to 7.00. For `COc1cc(C(=O)O)c(F)cc1NS(=O)(=O)c1csc(-c2ccc(C3=CCC(C)(C)CC3)c(F)c2F)n1` [Example 520] the value was 6.30 to 7.00; for `COc1cc(C(=O)O)c(F)cc1NS(=O)(=O)c1csc(-c2ccc(C3CCC(C)(C)CC3)c(F)c2F)n1` [Example 521], 6.30 to 7.00. `COc1cc(C(=O)O)c(F)cc1NS(=O)(=O)c1csc(-c2ccc(C3=CCC(C)(C)CC3)cc2C(F)(F)F)n1` [Example 522]: the pIC50 was > 7.00.

Take `COc1cc(C(=O)O)c(F)cc1NS(=O)(=O)c1csc(-c2ccc(C3=CCC(C)(C)CC3)c(OC)c2)n1` [Example 523]: the pIC50 is > 7.00. For `COc1cc(C(=O)O)c(F)cc1NS(=O)(=O)c1csc(-c2ccc(C3CCC(C)(C)CC3)cc2C(F)(F)F)n1` [Example 524, 4-((2-(4-(4,4-dimethylcyclohexyl)-2-(trifluoromethyl)phenyl)thiazole)-4-sulfonamido)-2-fluoro-5-methoxybenzoic acid] the value was > 7.00; for `COc1cc(C(=O)O)c(F)cc1NS(=O)(=O)c1csc(-c2ccc(C3CCC(C)(C)CC3)c(OC)c2)n1` [Example 525], 6.00 to 6.30. `COc1cc(C(=O)O)c(F)cc1NS(=O)(=O)c1csc(-c2ccc(-c3cccnc3)cc2)n1` [Example 526]: the pIC50 was 6.30 to 7.00. On to `COc1cc(C(=O)O)c(F)cc1NS(=O)(=O)c1csc(-c2ccc(C3=CCC(C)(C)CC3)c(C)c2)n1` [Example 527], for which the pIC50 was 6.30 to 7.00.

As to `COc1cc(C(=O)O)c(F)cc1NS(=O)(=O)c1csc(-c2ccc(C3CCC(C)(C)CC3)c(C)c2)n1` [Example 528], the pIC50 was 6.30 to 7.00.

`COc1cc(C(=O)O)c(F)cc1NS(=O)(=O)c1csc(-c2ccc(C3=CCC(C)(C)CC3)c(CO)c2)n1` [Example 529]: the pIC50 is 6.30 to 7.00.

For the compound `COc1cc(C(=O)O)c(F)cc1NS(=O)(=O)c1csc(-c2ccc(C3=CCC(C)(C)CC3)c(C(N)=O)c2)n1` [Example 530], the pIC50 is 6.00 to 6.30. With `COc1cc(C(=O)O)c(F)cc1NS(=O)(=O)c1csc(-c2ccc(-c3ccccc3O)cc2)n1` [Example 531] the figure was 6.30 to 7.00; with `COc1cc(C(=O)O)c(F)cc1NS(=O)(=O)c1csc(-c2ccc([C@]3(CO)CC[C@@H](C(F)(F)F)CC3)cc2)n1` [Example 532], 6.00 to 6.30; with `COc1cc(C(=O)O)c(F)cc1NS(=O)(=O)c1csc(-c2ccc(C3CCC(C)(C)CC3)c(C(N)=O)c2)n1` [Example 533], 6.00 to 6.30. For `COc1cc(C(=O)O)c(F)cc1NS(=O)(=O)c1csc(-c2ccc(C3CC4CCC(C4)C3)cc2)n1` (stereo not shown) [Example 534], the pIC50 was 6.30 to 7.00.

For the compound `COc1cc(C(=O)O)c(F)cc1NS(=O)(=O)c1csc(-c2ccc(C3CC4C(C3)C4(C)C)cc2)n1` (stereo not shown) [Example 535], the pIC50 is > 7.00.

For `COc1cc(C(=O)O)c(F)cc1NS(=O)(=O)c1csc(-c2ccc(C3=CCC(C)(C)CC3)cc2OC)n1` [Example 536], the pIC50 was > 7.00. With `COc1cc(C(=O)O)c(F)cc1NS(=O)(=O)c1csc(-c2ccc(C3=CCC(C)(C)CC3)c(OC(F)(F)F)c2)n1` [Example 537], the pIC50 was > 7.00. As to `COc1cc(C(=O)O)c(F)cc1NS(=O)(=O)c1csc(-c2ccc(C3=CCC(C)(C)CC3)c3[nH]ncc23)n1` [Example 538], the pIC50 was 6.30 to 7.00. With `COc1cc(C(=O)O)c(F)cc1NS(=O)(=O)c1csc(-c2ccc(C3CCC(C)(C)CC3)cc2OC)n1` [Example 539] the figure was > 7.00; with `COc1cc(C(=O)O)c(F)cc1NS(=O)(=O)c1csc(-c2ccc(C3CCC(C)(C)CC3)c(OC(F)(F)F)c2)n1` [Example 540], 6.30 to 7.00.

(Values after patent US12384753B2, “17-beta-hydroxysteroid dehydrogenase type 13 inhibitors and methods of use thereof” (Enanta Pharmaceuticals, Inc., priority 2021, dated 2025).)
